Legend:
[1] = tested on: IL-1β release, THP-1 cells; assay: Reduction of β-amyloid-induced increased release of interleukin-1β in LPS-stimulated THP-1 cells (ELISA); assay type: cell-based; details: Homo sapiens, test compound 100 μM, LPS 0.5 μg/mL + Aβ(25-35) 5 μM, 48 hours, stated as alternative: this 'or' Aβ(1-42) sheet formation, tested in at least one test, read-out: inhibition of β-amyloid-induced increase release of interleukin-1β compared to the controls
Protocol: THP-1 cells, a human monocyte cell line from American Type Culture Collection, were grown in RPMI-1640 medium plus 10% fetal bovine serum (FBS, not heat-inactivated) in T-flasks. The medium was changed every two days by spinning down the cells (800 rpm, 5 minutes) and adding the same fresh medium. Alternatively, the cultures were maintained by supplementation with fresh medium. The cultures were maintained at a cell concentration ranging from between 1×10^5 and 1×10^6 cells/mL. Because sera may contain unknown factors which can affect macrophage/monocyte IL-1 production, the FBS was reduced to 5% for 24 hours. The FBS was further reduced to 2% over two days prior to starting each experiment. The cells were collected by centrifugation and resuspended in media containing 2% FBS. Cell numbers were calculated and cells were plated on 24-well plates (3×10^5 cells/0.6 mL/well). Cells were then treated with LPS (0.5 μg/mL) alone or in combination with Aβ peptides (5 μM). […]
1L-1β secretions into medium by LPS-stimulated THP-1 cells, in the presence or absence of amyloid peptides and a test compound, were assayed with a commercially available ELISA kit (R & D Systems). […] Color development was stopped with 2 N sulfuric acid and the optical density of the standard and the test samples was measured at 450 nm. The amount of IL-1β present in the samples were calculated based upon a standard curve. […]

synthetic Aβ(1-42) = assay: Inhibition of Aβ beta-pleated sheet formation (thioflavin T fluorescence); assay type: biochemical; details: test compound 10 μM, ThT 3 μM, PBS pH 6.0, 12 hours; stated as alternative: this 'or' IL-1β release, tested in at least one test
From the text: The deposition of amyloid β-peptide (Aβ) is associated with the development of Alzheimer's disease. See, for example, G. G. Glenner et al. (1984) Biochem. Biophys. Res. Commun., 120:885-890; and R. E. Tanzi (1989) Ann. Med, 21:91-94. Accordingly, compounds which effectively disrupt the formation of Aβ(1-40) or Aβ(1-42) beta-pleated sheets are potentially useful for preventing and/or reversing such amyloid deposits. Thioflavin T (ThT) is known to rapidly associate with beta-pleated sheets, particularly the aggregated fibrils of synthetic Aβ(1-42). This association gives rise to an excitation maximum at 440 nm and to an emission at 490 nm.
The experiments were performed using a CytoFluor II fluorescence plate reader having the following parameters:
Into each well was aliquoted 95 μl of ThT (3 μM) prepared in PBS (pH 6.0), 2 μL of the compound to be tested (10 μM) prepared with 0.05% of methylcellulose in PBS (pH 6.0), and 3 μL of Aβ(1-42)(3 μg) prepared with dH2 O. The fluorescence measurement began when the Aβ(1-42) was added and continued for a total of 12 hours. The percent inhibition of beta-pleated sheet formation was calculated from the relative fluorescence unit difference between aggregation in the presence and in the absence of the test compounds. Inhibition of Aβ(1-42) beta-pleated sheet formation by at least 30% compared to the controls is considered significant in this test.

For `COc1ccc(Sc2ccc(C=[N+]([O-])C(C)(C)C)s2)cc1` [Example 1, α-[2-(4-Methoxyphenylthio)-5-thienyl]-N-tert-butylnitrone], the inhibition at 100 µM [1] was no less than 30% and the “inhibition of Aβ(1-42) beta-pleated sheet formation compared to the controls” value (synthetic Aβ(1-42)) was “at least 30%”.

In the case of `COc1ccc(Sc2ccc(C=[N+]([O-])C3CCCCC3)s2)cc1` [Example 2, α-[2-(4-Methoxyphenylthio)-5-thienyl]-N-cyclohexylnitrone], the inhibition at 100 µM [1] was no less than 30% and the “inhibition of Aβ(1-42) beta-pleated sheet formation compared to the controls” value (synthetic Aβ(1-42)) was “at least 30%”.

From US6015831A, “Thiophene nitrone compounds” (Centaur Pharmaceuticals, Inc., priority 1999, dated 2000)
